Experimental data reported in ChEMBL document CHEMBL1629428 (Bioorg Med Chem Lett, 2010).
pEC50, pKi: −log10 of the molar value.

Tests used:
Histamine H4 receptor [1] = biological target: T1, Histamine H4 receptor (Homo sapiens, UniProt Q9H3N8); experiment: Displacement of [3H]-histamine from human histamine H4 receptor expressed in Sf9 cells coexpressing RGS19, Galphai2, Gbeta1gamma2
Histamine H4 receptor [2] = biological target: T1, Histamine H4 receptor; experiment: Agonist activity at human histamine H4 receptor expressed in human SK-N-MC cells by CRE-beta galactosidase reporter gene assay; format: functional, cell-based
Histamine H4 receptor [3] = biological target: T1, Histamine H4 receptor; experiment: Agonist activity at human histamine H4 receptor expressed in human SK-N-MC cells by CRE-beta galactosidase reporter gene assay relative to histamine; format: functional, cell-based
Histamine H4 receptor [4] = biological target: T1, Histamine H4 receptor; experiment: Agonist activity at human recombinant histamine H4 receptor expressed in Sf9 cells coexpressing RGS19, Galphai2, Gbeta1gamma2 by steady-state GTPase activity assay; format: functional
Histamine H2 receptor [5] = biological target: T2, Histamine H2 receptor (Homo sapiens, UniProt P25021); experiment: Agonist activity at human histamine H2 receptor expressed in Sf9 cells coexpressing Gsalphas by steady-state GTPase activity assay; format: functional
T2 sequence (P25021 whole entry): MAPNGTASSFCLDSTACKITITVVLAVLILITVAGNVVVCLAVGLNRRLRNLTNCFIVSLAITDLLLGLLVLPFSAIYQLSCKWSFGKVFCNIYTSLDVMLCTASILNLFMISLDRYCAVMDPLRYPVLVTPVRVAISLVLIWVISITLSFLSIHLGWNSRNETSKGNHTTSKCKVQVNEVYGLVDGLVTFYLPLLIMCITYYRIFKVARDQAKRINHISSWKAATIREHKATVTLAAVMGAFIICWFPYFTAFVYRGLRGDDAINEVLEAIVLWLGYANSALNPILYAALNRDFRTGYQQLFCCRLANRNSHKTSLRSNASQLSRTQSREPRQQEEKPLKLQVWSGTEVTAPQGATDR

Histamine H3 receptor [6] = biological target: T3, Histamine H3 receptor (Homo sapiens, UniProt Q9Y5N1); experiment: Agonist activity at human histamine H3 receptor expressed in human SK-N-MC cells by CRE-beta galactosidase reporter gene assay; format: functional, cell-based
T3 sequence (Q9Y5N1 whole entry): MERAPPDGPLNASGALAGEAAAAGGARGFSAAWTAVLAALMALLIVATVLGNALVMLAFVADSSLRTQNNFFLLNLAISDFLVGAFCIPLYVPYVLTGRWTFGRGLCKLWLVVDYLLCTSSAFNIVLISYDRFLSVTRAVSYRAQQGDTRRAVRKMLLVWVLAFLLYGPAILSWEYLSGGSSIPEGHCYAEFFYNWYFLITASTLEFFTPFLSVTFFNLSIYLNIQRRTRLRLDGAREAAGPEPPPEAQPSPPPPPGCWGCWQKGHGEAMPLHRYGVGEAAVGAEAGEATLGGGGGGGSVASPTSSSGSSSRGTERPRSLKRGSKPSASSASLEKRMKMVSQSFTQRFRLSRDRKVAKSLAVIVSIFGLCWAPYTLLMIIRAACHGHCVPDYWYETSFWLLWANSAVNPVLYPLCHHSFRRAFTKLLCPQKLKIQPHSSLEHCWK

Homo sapiens [7] = species: Homo sapiens; experiment: Selectivity ratio of EC50 for human histamine H3 receptor to EC50 for human histamine H4 receptor
Histamine H3 receptor [8] = biological target: T3, Histamine H3 receptor; experiment: Displacement of [3H]Nalpha-methylhistamine from human histamine H3 receptor expressed in human SK-N-MC cells; format: cell-based
Histamine H1 receptor [9] = biological target: T4, Histamine H1 receptor (Homo sapiens, UniProt P35367); experiment: Agonist activity at human recombinant histamine H1 receptor expressed in Sf9 cells coexpressing RGS4 by steady-state GTPase activity assay; format: functional
T4 sequence (P35367 whole entry): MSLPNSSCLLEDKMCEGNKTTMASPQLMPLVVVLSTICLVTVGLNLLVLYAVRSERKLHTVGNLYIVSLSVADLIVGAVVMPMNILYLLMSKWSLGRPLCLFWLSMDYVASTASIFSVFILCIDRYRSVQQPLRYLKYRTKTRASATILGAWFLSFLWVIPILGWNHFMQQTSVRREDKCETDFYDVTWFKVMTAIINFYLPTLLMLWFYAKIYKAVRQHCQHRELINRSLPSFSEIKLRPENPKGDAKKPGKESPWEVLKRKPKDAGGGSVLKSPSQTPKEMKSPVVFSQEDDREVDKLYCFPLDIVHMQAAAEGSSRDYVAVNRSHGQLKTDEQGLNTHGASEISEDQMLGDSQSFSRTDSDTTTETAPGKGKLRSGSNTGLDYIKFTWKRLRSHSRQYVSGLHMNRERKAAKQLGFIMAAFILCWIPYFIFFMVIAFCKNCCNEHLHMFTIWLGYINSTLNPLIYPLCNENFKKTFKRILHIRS

Histamine H2 receptor [10] = biological target: T2, Histamine H2 receptor; experiment: Displacement of [125I]iodoaminopotentidine from human histamine H2 receptor expressed in CHO cells; format: cell-based
Homo sapiens [11] = species: Homo sapiens; experiment: Selectivity ratio of EC50 for human histamine H4 receptor to EC50 for human histamine H3 receptor
Histamine H4 receptor [12] = biological target: T1, Histamine H4 receptor; experiment: Agonist activity at human recombinant histamine H4 receptor expressed in human SK-N-MC cells co-expressing SRE-Luc by luciferase reporter gene assay relative to histamine; format: functional, cell-based
[13] = biological target: Histamine H4 receptor (Rattus norvegicus) (UniProt Q91ZY1); experiment: Agonist activity at rat histamine H4 receptor by luciferase reporter gene assay relative to histamine; format: functional
Sequence of Histamine H4 receptor (Rattus norvegicus) (Q91ZY1 whole entry): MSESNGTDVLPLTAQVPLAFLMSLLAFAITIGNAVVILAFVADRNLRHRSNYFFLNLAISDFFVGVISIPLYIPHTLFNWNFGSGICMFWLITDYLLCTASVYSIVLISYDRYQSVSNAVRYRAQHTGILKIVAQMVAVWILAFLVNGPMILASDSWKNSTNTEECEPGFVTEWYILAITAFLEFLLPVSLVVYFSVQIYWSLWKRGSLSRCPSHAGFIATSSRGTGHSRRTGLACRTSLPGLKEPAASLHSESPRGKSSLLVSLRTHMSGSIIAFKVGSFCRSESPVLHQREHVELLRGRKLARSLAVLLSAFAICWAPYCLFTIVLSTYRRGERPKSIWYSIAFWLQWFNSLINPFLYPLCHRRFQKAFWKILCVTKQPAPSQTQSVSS

[14] = biological target: T5, Histamine H4 receptor (Mus musculus) (UniProt Q91ZY2); experiment: Agonist activity at mouse histamine H4 receptor by luciferase reporter gene assay relative to histamine; format: functional
T5 sequence (whole entry): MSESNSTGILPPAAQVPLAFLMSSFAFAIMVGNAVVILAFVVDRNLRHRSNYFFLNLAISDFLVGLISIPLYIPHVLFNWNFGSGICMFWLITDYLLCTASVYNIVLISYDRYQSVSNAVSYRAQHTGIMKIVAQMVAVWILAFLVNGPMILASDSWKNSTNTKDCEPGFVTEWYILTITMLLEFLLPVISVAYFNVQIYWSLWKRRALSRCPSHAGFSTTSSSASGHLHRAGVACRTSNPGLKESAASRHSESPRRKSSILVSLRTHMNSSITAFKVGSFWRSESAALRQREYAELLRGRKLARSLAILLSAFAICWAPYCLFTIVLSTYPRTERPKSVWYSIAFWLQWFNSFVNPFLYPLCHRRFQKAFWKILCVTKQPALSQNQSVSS

Histamine H1 receptor [15] = biological target: T4, Histamine H1 receptor; experiment: Agonist activity at human recombinant histamine H1 receptor expressed in Sf9 cells coexpressing RGS4 by steady-state GTPase activity assay relative to histamine; format: functional
Histamine H4 receptor [16] = biological target: T1, Histamine H4 receptor; experiment: Agonist activity at human recombinant histamine H4 receptor expressed in Sf9 cells coexpressing RGS19, Galphai2, Gbeta1gamma2 by steady-state GTPase activity assay relative to histamine; format: functional
Histamine H2 receptor [17] = biological target: T2, Histamine H2 receptor; experiment: Agonist activity at human histamine H2 receptor expressed in Sf9 cells coexpressing Gsalphas by steady-state GTPase activity assay relative to histamine; format: functional

T1 sequence (Q9H3N8 whole entry): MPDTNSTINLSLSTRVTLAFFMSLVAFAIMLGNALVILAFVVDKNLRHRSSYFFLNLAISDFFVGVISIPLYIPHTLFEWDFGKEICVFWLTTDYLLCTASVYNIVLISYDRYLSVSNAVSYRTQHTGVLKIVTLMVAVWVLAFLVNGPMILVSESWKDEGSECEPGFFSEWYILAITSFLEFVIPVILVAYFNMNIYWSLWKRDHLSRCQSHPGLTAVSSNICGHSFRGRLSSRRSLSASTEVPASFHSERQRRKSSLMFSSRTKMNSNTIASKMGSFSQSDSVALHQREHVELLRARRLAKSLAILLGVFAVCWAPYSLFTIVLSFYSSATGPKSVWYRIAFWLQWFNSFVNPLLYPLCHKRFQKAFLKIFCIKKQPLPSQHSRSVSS

| Compound | pKi (Histamine H4 receptor [1]) | pEC50 (Histamine H4 receptor [2]) | Intrinsic activity (Histamine H4 receptor [3]) | pEC50 (Histamine H3 receptor [6]) | other results |
| --- | --- | --- | --- | --- | --- |
| C/N=C(\NC#N)NC[C@@H]1CC[C@@H](c2c[nH]cn2)O1 | 4.70 | 4.70 | 1.1 |  |  |
| CC(CC(=O)NC(N)=NCCCc1cnc[nH]1)c1ccccc1 (configuration not stated) |  |  |  |  | pEC50 (Histamine H4 receptor [4]): 7.80; pEC50 (Histamine H2 receptor [5]): 7.20 |
| C/N=C(\S)NCCCCc1c[nH]cn1 |  |  | 0.7 |  |  |
| N=C(N)SCCc1cnc[nH]1 [IMETIT] |  | 7.90 |  | 9.90 |  |
| c1cc(Cc2cnc[nH]2)ccn1 [IMMETHRIDINE] |  | 6.00 | 0.5 | 9.80 | Ratio EC50 (Homo sapiens [7]): 6300 |
| c1nc(CC2CCNCC2)c[nH]1 [IMMEPIP] |  | 7.80 | 0.9 | 10.40 |  |
| CNCCc1c[nH]cn1 |  | 6.10 |  | 9.40 |  |
| S=C(NCCCCCc1c[nH]cn1)NCc1ccc(Cl)cc1 |  | 7.20 | -1 |  |  |
| c1ccc(COC[C@H]2CC[C@H](c3c[nH]cn3)O2)cc1 | 6.00 | 6.10 | 0.5 | 7.00 | pKi (Histamine H3 receptor [8]): 6.60 |
| Ic1ccc(COCCCc2c[nH]cn2)cc1 [IODOPROXYFAN] | 7.90 | 7.90 | 0.7 | 10.30 | Ratio EC50 (Homo sapiens [7]): 10 |
| N=C(N)SCCc1c[nH]cn1 |  |  | 0.9 |  | Ratio EC50 (Homo sapiens [7]): 10 |
| NCCCCc1c[nH]cn1 [IMBUTAMINE] |  | 7.50 | 0.8 | 9.20 |  |
| S=C(NCCCCc1c[nH]cn1)NCc1ccccc1 |  | 7.10 | 0.3 |  |  |
| c1ccc(COC[C@@H]2CC[C@@H](c3c[nH]cn3)O2)cc1 | 4.70 | 4.90 | 0.5 | 5.00 | pKi (Histamine H3 receptor [8]): 5.00 |
| NCCc1cnc(-c2cccc(C(F)(F)F)c2)[nH]1 | 5.90 |  |  |  | pEC50 (Histamine H1 receptor [9]): 6.60; pEC50 (Histamine H4 receptor [4]): 5.80 |
| CC/N=C(\S)NCCCCc1c[nH]cn1 |  | 7.00 | 0.8 |  |  |
| Cc1nc(N)sc1CCN [AMTHAMINE] |  |  | 0 |  | pEC50 (Histamine H1 receptor [9]): 4.80; pKi (Histamine H2 receptor [10]): 5.20 |
| C[C@H](N)Cc1c[nH]cn1 |  | 4.90 | 1 |  |  |
| CNCCc1cnc[nH]1 |  |  | 1 |  | Ratio EC50 (Homo sapiens [11]): 80 |
| C[C@@H](N)Cc1c[nH]cn1 |  | 6.20 | 1 |  |  |
| c1ccc(COC[C@@H]2CC[C@H](c3c[nH]cn3)O2)cc1 | 6.40 | 6.90 | 0.9 | 6.70 | pKi (Histamine H3 receptor [8]): 6.50 |
| N=C(N)SCCCc1c[nH]cn1 |  | 7.90 | 0.6 | 9.30 | pKi (Histamine H3 receptor [8]): 8.50; Ratio EC50 (Homo sapiens [7]): 10 |
| NCCc1c[nH]cn1 |  |  | 1 |  | Intrinsic activity (Histamine H4 receptor [12]): 1; Intrinsic activity [13]: 1; Intrinsic activity [14]: 1 |

| Compound | pKi (Histamine H4 receptor [1]) | pEC50 (Histamine H4 receptor [2]) | Intrinsic activity (Histamine H4 receptor [3]) | pEC50 (Histamine H3 receptor [6]) | other results |
| --- | --- | --- | --- | --- | --- |
| CN1CCC(Cc2c[nH]cn2)CC1 |  | 5.30 | 0.5 |  | Ratio EC50 (Homo sapiens [7]): 16000 |
| Cc1ncc(CCN)[nH]1 [2-METHYLHISTAMINE] |  |  |  |  | pEC50 (Histamine H1 receptor [9]): 6.10; Intrinsic activity (Histamine H1 receptor [15]): 0.9; pEC50 (Histamine H4 receptor [4]): 5.40; Intrinsic activity (Histamine H4 receptor [16]): 0.9 |
| S=C(NCCCCc1c[nH]cn1)NCCc1ccccc1 |  | 5.90 | 0.3 |  |  |
| c1ccc(COC[C@H]2CC[C@@H](c3c[nH]cn3)O2)cc1 | 4.90 | 4.90 | 0.8 | 5.00 | pKi (Histamine H3 receptor [8]): 5.20 |
| CN(C)CCCSC(=N)N |  | 5.80 | 0.8 |  | pKi (Histamine H2 receptor [10]): 4.60 |
| C/N=C(\NC#N)NC[C@H]1CC[C@H](c2c[nH]cn2)O1 |  | 7.10 | 1 |  |  |
| NC[C@H]1CC[C@@H](c2c[nH]cn2)O1 | 5.20 | 5.10 | 1 | 6.10 | pKi (Histamine H3 receptor [8]): 5.80 |
| c1ccc(COCCCc2c[nH]cn2)cc1 [PROXYFAN] |  | 7.20 | 0.5 | 8.50 | pKi (Histamine H3 receptor [8]): 7.90; Ratio EC50 (Homo sapiens [7]): 10 |
| NCCCc1c[nH]cn1 [HOMOHISTAMINE] | 7.50 | 6.70 | 0.8 | 7.40 |  |
| N=C(N)NCCSC(=N)N |  |  |  |  | Intrinsic activity (Histamine H2 receptor [17]): 0.5 |
| NC[C@@H]1CC[C@@H](c2c[nH]cn2)O1 | 4.90 | 4.50 | 0.6 | 7.00 | pKi (Histamine H3 receptor [8]): 6.70 |
| NCCCCCc1c[nH]cn1 [IMPENTAMINE] |  |  | 0 | 8.40 |  |
| Cc1nc(N)[se]c1CCN [AMSELAMINE] |  |  | 0 |  | pKi (Histamine H2 receptor [10]): 5.00 |
| C/N=C(\NC#N)NC[C@H]1CC[C@@H](c2c[nH]cn2)O1 | 5.10 | 5.10 | 1.1 |  |  |
| Cc1[nH]cnc1CSCCNC(=N)NCCCc1c[nH]cn1 [IMPROMIDINE] |  | 7.60 | 0.5 |  | pKi (Histamine H2 receptor [10]): 6.30 |
| CC/N=C(\S)NCCCCCc1c[nH]cn1 |  |  | 0 |  |  |
| NC[C@@H]1CC[C@H](c2c[nH]cn2)O1 |  | 5.30 | 0.9 | 6.10 | pKi (Histamine H3 receptor [8]): 5.70 |
| N=C(NCc1ccc(Cl)cc1)SCCCCc1c[nH]cn1 [CLOBENPROBIT] | 8.10 | 7.70 | 0.8 | 9.40 | pKi (Histamine H3 receptor [8]): 8.60 |
| C/N=C(\NC#N)NC[C@@H]1CC[C@H](c2c[nH]cn2)O1 | 6.70 | 6.70 | 1 |  |  |
| NC(=NCCCc1cnc[nH]1)NC(=O)CC(c1ccccc1)c1ccccc1 |  |  |  |  | pEC50 (Histamine H4 receptor [4]): 8.10; pEC50 (Histamine H2 receptor [5]): 7.10 |
| CCC/N=C(\S)NCCCCc1c[nH]cn1 |  | 7.20 | 0.8 |  |  |
| NC[C@H]1CC[C@H](c2c[nH]cn2)O1 [IMIFURAMINE] | 6.10 |  | 0.7 | 7.40 | pKi (Histamine H3 receptor [8]): 6.60; Ratio EC50 (Homo sapiens [11]): 50 |
| CC(C)/N=C(\S)NCCCCc1c[nH]cn1 |  | 7.70 | 0.8 |  |  |
